Data as given in publication PMC4230943, “Mimicking Hypoxia to Treat Anemia: HIF-Stabilizer BAY 85-3934 (Molidustat) Stimulates Erythropoietin Production without Hypertensive Effects” (PLoS ONE, 2014).

How the values were obtained:
[1] = test system: male Wistar rats; assay: Subtotal nephrectomy (remnant kidney) model; type: in vivo, rat
Protocol: In the chronic disease models of subtotal nephrectomy and inflammation, the sodium salt of BAY 85-3934 was used. For administration in drinking water, BAY 85-3934 sodium and enalapril were prepared as 100 mM sodium bicarbonate saline solutions (adjusted to pH 7) at final concentrations of 80 ppm and 30 ppm, respectively. Sham and vehicle control animals received saline only. Unless otherwise stated, chemicals and reagents were purchased from Sigma-Aldrich.
Subtotal nephrectomy was conducted in adult male Wistar rats. Body weight, blood pressure, hematocrit, and blood cell counts were determined at baseline and thereafter at weekly intervals. At baseline, rats were randomly distributed into two groups: those that underwent subtotal nephrectomy and those that underwent a sham procedure without reduction of renal mass. Surgery was performed in deeply anesthetized (2% isoflurane in air) animals. Kidneys were accessed via a dorsolateral incision of the body wall of about 2 cm in length. The right kidney was removed after ligature of the renal peduncle, and subsequently the upper and lower pole of the left kidney were removed, followed by careful hemostasis. Approximately one third of the initial kidney mass remained (removed tissue was weighed to check this was achieved). In the sham-treated animals, both kidneys were exposed before closure of the wound. Three weeks after surgery, animals were allocated to each group in equal proportions with respect to systolic blood pressure and hematocrit values. For 5 weeks, animals were treated twice weekly with rhEPO (100 IU/kg), or once daily with […] (2.5 mg/kg or 5.0 mg/kg) or vehicle. In experiments using enalapril or a combination of BAY 85-3934 sodium and enalapril, study drugs were administered with drinking water. BAY 85-3934 sodium and enalapril were administered in drinking water at concentrations of 80 ppm and 30 ppm, respectively. This was equivalent to approximately 2 mg/kg/day for enalapril and 5 mg/kg/day for BAY 85-3934. Systolic blood pressure and heart rate were determined using the tail-cuff method (a semi-automatic, non-invasive blood pressure monitor; TSE Systems), with three repeated measurements per animal.
(§1) EPO was measured in plasma samples taken from rodents using a commercial ELISA kit (R&D Systems), according to the manufacturer’s instructions. Relative plasma EPO levels were given in picograms per milliliter. In cynomolgus monkeys, EPO was measured using a combination anti-human EPO ELISAs (R&D Systems and Roche Diagnostics), with human EPO as a standard. Values were given as units per liter. For determination of plasma prorenin from rats, a commercial ELISA (Oxford Biomedical Research) was used according to the manufacturer’s instructions. Hemoglobin in rodent blood samples was determined on a Cell-Dyn 3700 apparatus (Abbott Diagnostics). BAY 85-3934 plasma concentrations were determined after protein precipitation with acetonitrile/ammonium acetate using an internal standard, followed by separation using HPLC/mass spectrometry.
As well as anemia and inflammation, CKD is often accompanied by hypertension, upon which treatment with rhEPO may have an unfavorable impact. The effects of BAY 85-3934 were compared with rhEPO in the remnant kidney (subtotal nephrectomy) model in rats.

[2] = test system: male Wistar rats; assay: Comparison of oral BAY 85-3934 with rhEPO on erythropoiesis; type: in vivo, rat; settings: BAY 85-3934 2.5 mg/kg once daily oral; rhEPO 25, 50, 100 IU/kg twice weekly s.c.; p<0.001 at day 30
Protocol: Male Wistar rats (240–340 g in body weight) were housed with five animals per cage for at least 1 week before experimentation. Blood samples from rats were collected under anesthesia (2% isoflurane in air) by puncturing the retro-orbital vein plexus with a glass capillary. In a repeat-dose, 26-day experiment, animals were administered vehicle or BAY 85-3934 at doses of 0.5 mg/kg, 1.25 mg/kg, 2.5 mg/kg, and 5 mg/kg. PCV was determined at baseline and at weekly intervals after centrifugation in a hematocrit capillary tube (Brand) for 10 min at full speed in a Haemofuge centrifuge (Heraeus). The number of reticulocytes in 5 µl blood was counted after staining with thiazol orange (Becton Dickinson) according to the manufacturer’s instructions by FACS analysis on a BD FACSCalibur system (Becton Dickinson). The efficacy of BAY 85-3934 (2.5 mg/kg, once-daily, oral) was also compared with that of rhEPO (25 IU/kg, 50 IU/kg, and 100 IU/kg, twice-weekly, s.c. injection). […] The efficacy of oral treatment with BAY 85-3934 was compared with that of standard rhEPO treatment in male Wistar rats.

[3] = test system: cynomolgus monkeys; assay: Comparison of BAY 85-3934 with rhEPO (single dose and 14-day repeat dose); type: in vivo, cynomolgus monkey
Protocol: Male and female cynomolgus monkeys (2.8–5.6 kg in body weight) were used, which were housed two per cage. Blood samples from conscious cynomolgus monkeys were taken by puncturing a superficial vein. In a 5-day, repeat-dose study of plasma EPO response, BAY 85-3934 was administered at doses of 0.5 mg/kg and 1.5 mg/kg at 0 h, 24 h, 48 h, 72 h, and 96 h. Blood samples were taken at 7 h, 31 h, 55 h, 79 h, 103 h, and 168 h. Erythropoietic parameters were also evaluated after a 2-week treatment period with s.c. administration of rhEPO (100 IU/kg twice weekly at days 1, 4, 8, and 11) and BAY 85-3934 (1.5 mg/kg) once daily.
as §1
In a further study, the efficacy of oral treatment with BAY 85-3934 was evaluated in comparison with rhEPO. Animals were administered a single dose of rhEPO (100 IU/kg) by s.c. injection or BAY 85-3934 (1.5 mg/kg, oral). After administration of rhEPO, plasma concentrations of rhEPO were more than 8-fold higher than the endogenous EPO levels induced by treatment with BAY 85-3934 (Fig. 3B). The area under the curve (AUC) of rhEPO was more than 6-fold higher than the AUC of endogenous EPO. […] Mean reticulocyte counts were 2-fold higher after treatment with rhEPO than after treatment with BAY 85-3934, but returned to baseline values 8 days after treatment cessation.

[4] = single dose rhEPO 100 IU/kg s.c. vs BAY 85-3934 1.5 mg/kg oral
[5] = drinking water, 5 weeks: BAY 85-3934 sodium 80 ppm, enalapril 30 ppm

Compound | systolic blood pressure compared with untreated controls ([1]; 5 weeks, tail-cuff) | mean PCV ([1]; BAY 85-3934 2.5 and 5 mg/kg once daily, rhEPO 100 IU/kg twice weekly) | cardiac hypertrophy ([1]; data not shown) | hematocrit compared with the control group [2] | mean reticulocyte counts relative to BAY 85-3934 treatment ([3]; 14-day repeat dose) [fold] | time after treatment cessation at which reticulocyte counts returned to baseline ([3]; 14-day repeat dose) [days] | mean gains of hemoglobin and red blood cells, both treatments compared ([3]; 14 days, rhEPO 100 IU/kg twice weekly s.c., BAY 85-3934 1.5 mg/kg once daily) | AUC of rhEPO relative to AUC of endogenous EPO [3, 4] | plasma rhEPO concentration relative to endogenous EPO induced by BAY 85-3934 [3, 4] | mean PCV [1, 5] | mean systolic blood pressure compared with control [1, 5] | plasma prorenin levels [1, 5]
rhEPO: Human recombinant EPO (Ortho Biotech), s.c. injection | no difference | significantly increased | manifested | significant increase | 2 | 8 | almost completely congruent over time | more than 6 fold | more than 8 fold | – | – | –
CCOC(=O)[C@H](CCc1ccccc1)N[C@@H](C)C(=O)N1CCC[C@H]1C(=O)O [enalapril, reference compound] | – | – | – | – | – | – | – | – | – | remained unchanged | significant reduction | reversion of plasma prorenin levels to normal values
[Na+].[O-]c1c(-n2ccnn2)cnn1-c1cc(N2CCOCC2)ncn1 [BAY 85-3934 sodium] | – | – | – | – | – | – | – | – | – | increasing | significantly reduced | –
